For one data set, the target named is T1, human CHK1 (FL-CHK1) (Homo sapiens, UniProt O14757).
T1 construct: C-terminally His-tagged full-length human CHK1 (FL-CHK1); made in house; host or cells: baculovirus/insect cell system
T1 sequence (O14757 1-476): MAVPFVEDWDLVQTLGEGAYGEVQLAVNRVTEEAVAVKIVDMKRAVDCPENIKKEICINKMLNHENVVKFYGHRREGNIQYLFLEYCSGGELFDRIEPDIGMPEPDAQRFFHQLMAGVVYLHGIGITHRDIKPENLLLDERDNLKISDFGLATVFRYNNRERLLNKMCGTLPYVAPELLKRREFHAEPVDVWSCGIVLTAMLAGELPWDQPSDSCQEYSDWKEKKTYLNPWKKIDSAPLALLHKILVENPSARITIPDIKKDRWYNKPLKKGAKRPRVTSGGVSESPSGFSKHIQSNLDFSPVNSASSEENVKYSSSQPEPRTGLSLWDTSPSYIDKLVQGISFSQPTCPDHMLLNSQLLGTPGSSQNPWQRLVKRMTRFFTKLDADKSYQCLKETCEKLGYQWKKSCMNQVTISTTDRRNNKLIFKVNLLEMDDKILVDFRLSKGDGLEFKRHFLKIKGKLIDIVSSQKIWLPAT
As to the kind of experiment: CHK1 assay (coupled spectrophotometric, Syntide-2). It counts as biochemical. The procedure, abridged:
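Full-length C-terminally His-tagged human CHK1 expressed in baculovirus/insect cells, used at 10 nM with Syntide-2 substrate. ADP formation coupled via PK/LDH to NADH oxidation, followed as absorbance decrease at 340 nm. Ki from initial rates at varying compound concentrations.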

Data set [1] deals with phosphorylated VEGF-R2Δ50 (FLVK-P) (Homo sapiens, UniProt P35968, DEL940-989/E990V). As to the kind of experiment: VEGF-R2 coupled spectrophotometric assay, phosphorylated VEGF-R2Δ50 (FLVK-P).
phosphorylated VEGF-R2Δ50 (FLVK-P), sequence (P35968 with tags, fused parts or gaps DEL940-989/E990V limits assumed): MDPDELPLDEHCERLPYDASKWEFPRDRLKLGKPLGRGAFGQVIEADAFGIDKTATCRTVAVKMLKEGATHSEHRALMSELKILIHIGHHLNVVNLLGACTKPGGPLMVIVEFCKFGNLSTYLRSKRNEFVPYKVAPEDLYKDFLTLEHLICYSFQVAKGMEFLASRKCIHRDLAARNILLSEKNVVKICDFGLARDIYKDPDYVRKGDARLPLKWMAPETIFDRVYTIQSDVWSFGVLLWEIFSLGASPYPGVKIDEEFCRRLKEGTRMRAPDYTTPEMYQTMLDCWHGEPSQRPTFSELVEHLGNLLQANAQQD
Another data set has as its target CDK2/Cyclin A (Homo sapiens, UniProt P24941). As to the kind of experiment: CDK2/Cyclin A assay ([32P]ATP, Rb fragment). It counts as biochemical.
In the next data set the target is CDK4/Cyclin D3 complex (Homo sapiens, UniProt P11802). Briefly: CDK4/Cyclin D assay ([32P]ATP, Rb fragment).
CDK4/Cyclin D3 complex, sequence (P11802 whole entry, the tested form may be a part): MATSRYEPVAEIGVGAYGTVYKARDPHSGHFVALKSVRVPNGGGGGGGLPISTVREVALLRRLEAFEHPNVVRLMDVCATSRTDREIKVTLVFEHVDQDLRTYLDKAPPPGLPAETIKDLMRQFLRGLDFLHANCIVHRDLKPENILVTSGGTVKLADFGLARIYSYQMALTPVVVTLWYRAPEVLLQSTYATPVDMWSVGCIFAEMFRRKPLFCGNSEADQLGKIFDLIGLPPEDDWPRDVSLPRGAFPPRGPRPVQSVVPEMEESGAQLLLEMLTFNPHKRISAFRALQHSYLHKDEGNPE
CDK4/Cyclin D3 complex, sequence (P30281 whole entry partner, the tested form may be a part): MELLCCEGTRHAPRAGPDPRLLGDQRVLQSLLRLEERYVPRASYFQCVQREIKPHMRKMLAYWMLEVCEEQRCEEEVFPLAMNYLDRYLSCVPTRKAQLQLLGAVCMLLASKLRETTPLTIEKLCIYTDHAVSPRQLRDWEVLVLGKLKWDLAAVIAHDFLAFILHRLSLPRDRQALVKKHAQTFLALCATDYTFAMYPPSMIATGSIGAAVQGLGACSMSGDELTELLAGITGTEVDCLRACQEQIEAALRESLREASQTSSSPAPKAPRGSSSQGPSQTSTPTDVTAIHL
A further data set deals with human FGF-R1 (Homo sapiens, UniProt P11362, C488A/C584S/L457V). Briefly: FGF-R spectrophotometric assay. The settings on record: for inhibition at 1 µM: read-out: FGF-P % inhibition, Table 1.
human FGF-R1, sequence (P11362 456-766 L457V/C488A/C584S): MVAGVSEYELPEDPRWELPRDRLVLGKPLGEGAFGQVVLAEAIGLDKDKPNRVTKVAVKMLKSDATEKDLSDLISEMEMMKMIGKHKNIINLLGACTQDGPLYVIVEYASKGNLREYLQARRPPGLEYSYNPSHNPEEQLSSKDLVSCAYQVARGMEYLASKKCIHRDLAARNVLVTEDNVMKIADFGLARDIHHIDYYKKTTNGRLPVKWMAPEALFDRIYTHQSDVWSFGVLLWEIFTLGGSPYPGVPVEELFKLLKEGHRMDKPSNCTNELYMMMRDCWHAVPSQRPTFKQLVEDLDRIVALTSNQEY
Data set [2] has as its target unphosphorylated VEGF-R2Δ50 (FLVK) (Homo sapiens, UniProt P35968, DEL940-989/E990V). Briefly: VEGF-R2 coupled spectrophotometric assay, unphosphorylated VEGF-R2Δ50 (FLVK). Conditions: for inhibition at 0.05 µM: read-out: FLVK % inhibition; for Ki: FLVK Ki, Table 1.
Another data set addresses T2, LCK tyrosine kinase (Homo sapiens, UniProt P06239, C224D/P223M).
T2 construct: starting from amino acid residue 223 to the end of the protein at residue 509; made in house; host or cells: insect cells
As to the kind of experiment: LCK spectrophotometric assay. It counts as biochemical. Conditions: Table 1, compound concentration 1 μM; for inhibition at 1 µM: read-out: Lck-P % inhibition. On the procedure:
The production of ADP from ATP that accompanies phosphoryl transfer was coupled to oxidation of NADH using phosphoenolpyruvate (PEP) and a system having pyruvate kinase (PK) and lactic dehydrogenase (LDH). The oxidation of NADH was monitored by following the decrease of absorbance at 340 nm (e340=6.22 cm^−1 mM^−1) using a Beckman DU 650 spectrophotometer. […] Ki values were determined by measuring enzyme activity in the presence of varying concentrations of test compounds. The data were analyzed using Enzyme Kinetic and Kaleidagraph software.
The spectrophotometric assay was carried out as described above for VEGF-R2, except for the following changes in concentration: LCK=60 nM, MgCl2=0 mM, poly(E4Y1)=20 mM.

The nature of data set [3]: Human liver microsome (HLM) assay. It counts as in vitro ADME. Conditions: human liver microsomes, 5 μM test compound. The procedure, abridged: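 LC-MS quantified test compound remaining after 0 and 2 h incubation with human liver microsomes. Triplicate samples, clarified by 10 min centrifugation at 14000 g.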
(Microsomes from liver hold many membrane-bound enzymes, among them those of drug oxidation.)

Data set [4] deals with human umbilical vein endothelial cells (HUVEC). Briefly: HUVEC proliferation assay (VEGF-stimulated, MTT). Conditions: Homo sapiens, HUVEC. The class given is cell-based.
A short description of data set [5]: Determination of inhibitor concentration in mouse plasma after intraperitoneal and oral dosing. It counts as in vivo. The settings on record: for concentration at 7 h: vehicle PEG400:H2O pH 2.3 30:70, read-out: Cmin (7 hr conc.). The procedure, abridged: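 Plasma levels quantified by HPLC or LC-MS using a standard curve prepared in mouse plasma, following ethyl acetate extraction with internal standard and sodium hydroxide. Sampling at 0.5, 1, 4 h (ocular bleed) and 7 h (cardiac puncture) after oral or intraperitoneal dosing.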

[6] abbreviates: + albumin, read-out: HUVEC + albumin IC50.
[7] abbreviates: IP, 25 mg/kg, vehicle PEG400:H2O pH 2.3 30:70.
Setting [8] is: PO, 50 mg/kg, vehicle PEG400:H2O pH 2.3 30:70.

SMILES strings stand for the structures. Values joined by “and” are separate entries in the source; they are usually repeats but may differ in a detail not shown here. Identical values can stand only once. Like-named read-outs stand apart in the source and are kept apart here. Marks after values point to notes of the source that are not given here. A value given as a limit tells only on which side of the number the result lay.

T2 sequence (P06239 223-509 P223M/C224D): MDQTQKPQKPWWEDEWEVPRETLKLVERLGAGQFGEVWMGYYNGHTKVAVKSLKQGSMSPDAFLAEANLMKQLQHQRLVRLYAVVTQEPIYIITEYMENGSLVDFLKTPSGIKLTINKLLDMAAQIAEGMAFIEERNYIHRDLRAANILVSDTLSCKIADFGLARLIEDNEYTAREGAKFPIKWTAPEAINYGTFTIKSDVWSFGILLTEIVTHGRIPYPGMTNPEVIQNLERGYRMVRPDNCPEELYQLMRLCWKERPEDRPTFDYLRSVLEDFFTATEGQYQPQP
unphosphorylated VEGF-R2Δ50 (FLVK), sequence (P35968 with tags, fused parts or gaps DEL940-989/E990V limits assumed): as the sequence (P35968 with tags, fused parts or gaps DEL940-989/E990V limits assumed) above

The Ki is a measure of affinity in units of concentration, obtained from inhibition or displacement. For `COc1cc(O)ccc1-c1ccc2c(-c3nc4ccccc4[nH]3)n[nH]c2c1` [Example 24(d), 3-1H-Benzoimidazol-2-yl-6-(4-hydroxy-2-methoxyphenyl)-1H-indazole], the inhibition constant (Ki) worked out at 56 nM on human CHK1 (FL-CHK1) (Table 2), 125 nM in data set [1], 83 nM on CDK2/Cyclin A (Table 2) and 17 nM at CDK4/Cyclin D3 complex.

In general, inhibition refers to the percentage by which the read-out fell short of the control. For `Cc1cc(C(=O)Nc2cccc(Oc3ccc4c(/C=C/c5ccccn5)n[nH]c4c3)c2)n(C)n1` [Example 57, 6-[3-((1,3-Dimethyl-1H-pyrazol-5-yl)carboxamido)phenoxy]-3-E-[2-(pyridin-2-yl)ethenyl]-1H-indazole], the inhibition at 1 µM came to 89% on human FGF-R1 (compound concentration 1 μM) and 30% at LCK tyrosine kinase. For the same compound, the inhibition at 0.05 µM in [2] is 100%.

For `CC(=O)Nc1cccc(N(C)c2ccc3c(/C=C/c4ccccc4)n[nH]c3c2)c1` [Example 12(a), N-{3-[Methyl-(3-styryl-1H-indazol-6-yl)-amino]-phenyl}-acetamide], the Ki at human FGF-R1 is 19 nM; in [1], 6.9 nM; in data set [2], 1.8 nM. For the same compound, in data set [3], the “% remain (HLM, 2 h)” value is given as 59%.

Take `CN(c1cccc(NC(=O)c2ccccc2)c1)c1ccc2c(/C=C/c3ccccc3)n[nH]c2c1` [Example 12(b), N-{3-[Methyl-(3-styryl-1H-indazol-6-yl)-aimino]-phenyl}-benzamide]: the Ki on human FGF-R1 stood at 31 nM; in data set [1], 1.8 nM; in [2], 0.48 nM.

`C(=C\c1n[nH]c2cc(Oc3ccccc3)ccc12)/c1ccccc1` [Example 8(a), 3-(E-Styryl)-6-phenoxy-1H-indazole]: the Ki on human CHK1 (FL-CHK1) (Table 1, read-out: CHK-1 Ki) turned out to be 530 nM; at human FGF-R1, 42 nM; in data set [1] it was 23 nM; in [2], 3.2 nM.

`COc1cc(-c2ccc3c(-c4ccccc4)n[nH]c3c2)ccc1O` [Example 2(b), 3-Phenyl-6-(3-methoxy-4-hydroxy-phenyl)-1H-indazole]: the Ki in data set [1] came to 425 nM; at CDK2/Cyclin A (Table 1), 2200 nM; on CDK4/Cyclin D3 complex, 8000 nM; in [2] it was 300 nM.

For the compound `Cc1cc(O)c(Cl)cc1-c1ccc2c(-c3nc4ccccc4[nH]3)n[nH]c2c1` [Example 24(c), 4-[3-(1-H-Benzoimidazol-2-yl)-1-H-indazol-6-yl]-2-chloro-5-methyl-phenol], the Ki on human CHK1 (FL-CHK1) (Table 2) was 44 nM; in [1], 14.2 nM; on CDK2/Cyclin A (Table 2) it was 3.4 nM; on CDK4/Cyclin D3 complex it was 1.5 nM.

The term IC50 denotes the point on the concentration scale where inhibition reaches its midpoint. `C=CCOc1cc(-c2ccc3c(/C=C/c4ccc(OC)c(OC)c4)n[nH]c3c2)ccc1O` [Example 1(c), 3-[E-2-(3,4-Dimethoxy-phenyl)vinyl]-6-(3-allyloxy-4-hydroxy-phenyl)-1H-indazole]: in data set [4] (read-out: HUVEC IC50), the IC50 is greater than 1000 nM. For the same compound, the Ki on human CHK1 (FL-CHK1) (Table 1, read-out: CHK-1 Ki) was 78 nM; in [1], 4.7 nM; on CDK2/Cyclin A (Table 1) it was 560 nM; at CDK4/Cyclin D3 complex, 670 nM; in [2] it was 1.4 nM.

With `CCn1nc(C)cc1C(=O)Nc1cc(C(=O)c2ccc3c(/C=C/c4ccccn4)n[nH]c3c2)c(C)cc1C` [Example 41(ll), 6-[2,4-Dimethyl-5-((1-Ethyl-3-methyl-1H-pyrazol-5-yl)carboxamido)benzoyl]-3-E-[2-(pyridin-2-yl)ethenyl]-1H-indazole], the IC50 in data set [4] (setting [6]) stood at 23 nM. Besides, the inhibition at 1 µM came out at 91% at human FGF-R1 (compound concentration 1 μM) and 14% at LCK tyrosine kinase. Also, the inhibition at 0.05 µM in data set [2] came out at 95%.

Turning to `CCn1nc(C)cc1C(=O)Nc1cc(Oc2ccc3c(/C=C/c4ncc[nH]4)n[nH]c3c2)ccc1C` [Example 58], the inhibition at 1 µM on human FGF-R1 (compound concentration 1 μM) amounted to 98%; at LCK tyrosine kinase it was 19%. Besides, the inhibition at 0.05 µM in data set [2] amounted to 98%.

Turning to `COc1cc(-c2ccc3c(-c4nc5ccccc5[nH]4)n[nH]c3c2)c(C)cc1O` [Example 24(a), 4-[3-(1-H-Benzoimidazol-2-yl)-1-H-indazol-6-yl]-2-methoxy-5-methyl-phenol], the Ki on human CHK1 (FL-CHK1) (Table 2) turned out to be 28 nM; in data set [1], 98.3 nM; at CDK2/Cyclin A (Table 2), 17 nM; on CDK4/Cyclin D3 complex it was 5.1 nM.

`Oc1ccc(-c2ccc3c(-c4nc5ccccc5[nH]4)n[nH]c3c2)c(Oc2ccccc2)c1` [Example 24(g), 3-1H-Benzoimidazol-2-yl-6-(2-phenoxy-4-hydroxyphenyl)-1H-indazole]: the Ki in [1] was 194 nM; at CDK2/Cyclin A (Table 2) it was 130 nM; at CDK4/Cyclin D3 complex, 29 nM.

As a reminder, the Cmax is the peak of the concentration-time curve. `O=C(Nc1cc(Nc2ccc3c(/C=C/c4ccccc4)n[nH]c3c2)ccc1F)c1ccccc1` [Example 47, 6-[N-(3-Benzamido-4-fluorophenyl)amino]-3-E-styryl-1H-indazole]: the inhibition at 1 µM on human FGF-R1 (compound concentration 1 μM) was determined as 88%. In [2], this compound yielded a Ki of 0.25 nM. For the same compound, at LCK tyrosine kinase, the inhibition at 1 µM was 50%. Also, in data set [5] (setting [7]), the AUClast came to 236 ng·h/mL, the Cmax came to 39 ng/mL and the “plasma half-life (T1/2)” value amounted to 19.9 h. Further, in data set [5] (setting [8]), the AUClast is 327 ng·h/mL, the Cmax was 84 ng/mL and the “plasma half-life (T1/2)” value is 3.4 h.

The AUC(0-t) is exposure summed from dosing to a finite time, without extrapolation to infinity. On to `C#CCNC(=O)c1ccccc1Nc1ccc2c(/C=C/c3ccccn3)n[nH]c2c1` [Example 39(b), 6-[2-(Prop-2-ynylcarbamoyl)phenylamino]-3-E-[2-(pyridin-2-yl)ethenyl]-1H-indazole], for which the IC50 in [4] (setting [6]) was greater than 10 nM. In addition, the inhibition at 1 µM was found to be 50% on human FGF-R1 (compound concentration 1 μM) and 10% at LCK tyrosine kinase. Moreover, in data set [5] (PO, 25 mg/kg, vehicle PEG400:H2O pH 2.3 30:70), the “plasma half-life (T1/2)” value stood at 11.8 h. This compound displayed an AUC(0-t) in data set [5] (female, PO, 25 mg/kg, vehicle PEG400:H2O pH 2.3 30:70) greater than 31000 ng·h/mL. The Cmax in data set [5] (female, PO, 25 mg/kg, vehicle PEG400:H2O pH 2.3 30:70, read-out: Cmax) is greater than 5000 ng/mL. In addition, in [5] (female, PO, 25 mg/kg), the concentration at 7 h was found to be 3150 ng/mL.

As to `CC(=O)Nc1cccc(Oc2ccc3c(/C=C/c4ccccc4)n[nH]c3c2)c1` [Example 4(b), N-[3-(3-Styryl-1H-indazol-6-yloxy)-phenyl]-acetamide], the figures for the Ki (on human FGF-R1; in data set [1]; in [2]) were 49 nM, 1.9 nM and 2.7 nM, respectively.

At human FGF-R1 (Table 1, compound concentration 1 μM, 1 µM), `O=C(c1cccc(NC(=O)C2C[C@H]2c2ccccc2)c1)c1ccc2c(/C=C/c3ccccn3)n[nH]c2c1` (stereo partly drawn) [Example 41(l), 6-[3-((2-RS-trans-Phenylcyclopropyl)carboxamido)benzoyl]-3-E-[2-(pyridin-2-yl)ethenyl]-1H-indazole] came in with an FGF-P % inhibition of 66%. Moreover, on human FGF-R1 (compound concentration 1 μM), the inhibition at 1 µM came out at 76%. For the same compound, in data set [2], the Ki was 0.04 nM and 0.24 nM. Also, the Lck-P % inhibition at LCK tyrosine kinase (1 µM) was 38%* and 63%*. In [5] (setting [7]), the AUClast was determined as 1854 ng·h/mL, the Cmax turned out to be 623 ng/mL and the “plasma half-life (T1/2)” value came out at 3.1 h. In data set [5] (setting [8]), the AUClast worked out at 212 ng·h/mL, the Cmax was determined as 104 ng/mL and the “plasma half-life (T1/2)” value came out at 0.5 h. For the same compound, the concentration at 7 h in data set [5] (female, IP, 25 mg/kg) was 102 ng/mL. In addition, in data set [5] (female, PO, 50 mg/kg), the concentration at 7 h was determined as 0 ng/mL.

The record behind these values is patent publication US6534524B1, “Indazole compounds and pharmaceutical compositions for inhibiting protein kinases, and methods for their use” (Agouron Pharmaceuticals, Inc., priority 1999, dated 2003).
